Data set [1] concerns MDA-MB-231/luciferase tumor xenografts. The data set can be described thus: Cancer relapse in MDA-MB-231/luciferase xenograft mouse model of TNBC. Conditions: treated at day 0, 7, 14 and 21; for cancer relapse at later time points (day 74): assessed up to day 74. The class given is in vivo, mice. The procedure:
It was then assessed whether treatment with docetaxel or TH1902 could prevent cancer relapse using the MDA-MB-231/luciferase xenograft mouse model of TNBC. The MDA-MB-231 tumor cell has been reported to have cells with cancer stem cell (CSC)-like properties (Sleeboom et al., Int J Mol Sci. 2018 October; 19(10): 3047; Ghanbari et al., Int. J. Morphol., 34(4):1197-1202, 2016). Mice with MDA-MB-231/luciferase tumor xenografts were treated a day 0, 7, 14 and 21 with either vehicle (control), Docetaxel or TH1902 and tumor growth was assessed up to day 74.

Another data set relates to hBCSC xenografts. The data set can be described thus: Growth of hBCSC xenografts in mice. The data set is classed as in vivo. The conditions noted are these: for growth of tumors originating from breast CSCs: weekly i.v., TH1902 at doses equivalent to 1, 1.25 or 1.5 the MTD of docetaxel, docetaxel 15 mg/kg (MTD). The text has this: (§1) In vivo Assessment of Docetaxel and TH1902 Anti-Tumor Efficacy. Tumor xenografts were established by subcutaneous inoculation of 10^3 hBCSC cells, hOvCSC and hPCSC resuspended in […] of HBSS containing 50% Matrigel™, into the right flank of NCG triple immunodeficient female mice (Charles River, Saint-Constant QC) under light isoflurane anesthesia. Three days following implantation of either hBCSC or hOvCSCS, mice commenced receiving weekly treatment by intravenous bolus injections of vehicle (10% polysorbate-80, 5% dextrose, 0.04% formic acid pH 4.3), docetaxel (15 mg/kg (the MTD for this agent) or 3.75 mg/kg (¼ MTD for this agent), dissolved in 5% dextrose, 3.3% ethanol, 1.7% Tween™-80) or TH1902 (35 mg/kg or 8.75 mg/kg) dissolved in vehicle. Note that the two TH1902 and docetaxel concentrations contain equimolar amounts of docetaxel due to the two docetaxel moieties per TH1902 molecule. Tumor growth was measured using two-dimensional measurements taken with an electronic caliper, and tumor volume was calculated according to the following formula: tumor volume (mm^3)=π/6×length×width^2. Animal weights were measured three times per week with a precision of 10 mg.

The test system of another data set is MDA-MB-231/luc cells. Kind of data set: Cell cycle analysis (G2/M) of MDA-MB-231/luc cells. Conditions: MDA-MB-231 cells. The data set is classed as cell-based, human. The procedure:
Cell Cycle Analysis Following Treatment of hBCSC by Test Articles. hBCSCs (2.8×10^5 cells/well) and MDA-MB-231/luc cells (2.3×10^5 cells/well) were seeded in 6-well plates one day prior to treatment. To test the effects of Docetaxel and TH1902 on cell cycle phases, hBCSCs and MDA-MB-231/luc cells were treated for 2 hours in serum-free media with vehicle (DMSO), 4 μM docetaxel or 2 μM TH1902 (equimolar of docetaxel), rinsed with complete media and incubated in fresh complete media for 22 and 48 hours. For the experiments with the P-gp inhibitors, hBCSCs were first pre-treated for 30 minutes in serum-free media with vehicle (DMSO), or 10 μM cyclosporine A or PSC-833 (P-gp inhibitors). Next, cells were treated for 2 hours with 4 μM docetaxel or 2 μM TH1902 in the continued presence or absence of the P-gp inhibitors before being rinsed and incubated in fresh complete media in the continued presence or absence of the P-gp inhibitors. Cells were then incubated for 22 and 48 hours. In both assays, following the incubation, cells were detached with trypsin, fixed with ice-cold 70% EtOH and kept overnight at 4° C. Cells were washed once with PBS, after which they were stained for 30 minutes at room temperature with FxCycle™ PI/RNase Staining Solution (Thermo Scientific, Waltham, MA; #F10797). Cells were finally subjected to cell cycle analysis using a BD Accuri™ C6 flow cytometer.

The next data set relates to hOvCSC xenografts. The data set can be described thus: Growth of hOvCSC xenografts in mice. Conditions: weekly i.v.; TH1902 at doses equivalent to 1, 1.25 or 1.5 the MTD of docetaxel; docetaxel 15 mg/kg (MTD). The data set is classed as in vivo.
Source text: as §1, with “[…])” for “1.7% Tween™-80) or TH1902 (35 mg/kg or 8.75 mg/kg)”, “Note that the two TH1902 and docetaxel concentrations contain equimolar amounts of docetaxel due to the two docetaxel moieties per TH1902 molecule.” left out

Data set [2] is classed as in vivo, mice.
Source text: as §1

The test system of data set [3] is hBCSCs. The data set can be described thus: hBCSC apoptosis by flow cytometry (annexin V-FITC/PI). The data set is classed as cell-based, human. The conditions noted are these: 2 h treatment, 4 μM docetaxel or 2 μM TH1902; 22 h, 48 h, 72 h post-treatment. The procedure:
Assessment of hBCSC Apoptosis by Flow Cytometry. AnnexinV/PI staining was performed using an Apoptosis Detection Kit (BD Pharmingen, Mississauga ON) according to the manufacturer's instructions. Briefly, hBCSCs (1.3×10^5 cells/well) were seeded for 24 hours in 12-well plates. Cells were treated in serum-deprived medium for 2 hours with vehicle (DMSO), 4 μM Docetaxel or 2 μM TH1902. Cells were washed with complete medium and incubated in fresh complete medium for 22, 48, and 72 hours. Cells were finally harvested, resuspended in a staining solution of 100 μl of 1×binding buffer containing 5 μL of annexinV-FITC and 5 μL of PI. Cells were incubated for 15 minutes at room temperature in the dark before analysis by flow cytometry. The extent of apoptosis was measured, then analyzed using BD Accuri™ C6 software.
(In flow cytometry, cells or beads pass a laser one at a time.)

Data set [4] relates to hBCSCs. The data set can be described thus: Scratch (wound-healing) assay of hBCSC migration. The conditions noted are these: 2 h treatment, 2 μM docetaxel or 1 μM TH1902; images at 24 and 48 h. The class given is cell-based, human. The procedure:
Inhibition of hBCSC Migration by Test Articles. Cell migration experiments were carried out using the scratch (wound-healing) assay. Cells (2.8×10^5 cells /well) were plated in 6-well plates for 24 hours and then scratched using a sterile p200 pipette tip. Cells were washed with serum-free medium to remove the detached cells, then treated for 2 hours with serum-free medium containing vehicle (DMSO), 2 μM Docetaxel, or 1 μM TH1902. Cells were rinsed with complete media and incubated for 48 hours in a fresh complete media. Images were acquired, at 0, 24 and 48 hours after scratching, with an inverted microscope.

Another data set deals with pancreatic CSCs. Kind of data set: Growth of tumors originating from pancreatic CSCs in mice. The class given is in vivo. Conditions: TH1902 at doses equivalent to 1, 1.25 or 1.5 the MTD of docetaxel; docetaxel 15 mg/kg (MTD).
Source text: as §1

Square brackets hold non-standard residues; d marks the D form. Ends that are not written are not given here. Nle = CCCC[C@H](N)C(=O)O

Turning to “Acetyl-GVRAK(docetaxel)AGVRN(Nle)FK(docetaxel)SESY (Ac-GVRAK(docetaxel)AGVRN[Nle]FK(docetaxel)SESY) [TH1902]”, in data set [1], the “tumor growth during and shortly after administration” value is reported as “reduction in tumor growth”; the “cancer relapse at later time points (day 74)” value is “No residual tumor could be detected”. The “tumor growth curve at 8.75 mg/kg TH1902 (eq. to 1/4 of docetaxel MTD)” value with hBCSC xenografts (hBCSC xenografts, weekly, FIG. 8A) is “virtual overlap between the 15 mg/kg docetaxel curve and the 8.75 mg/kg TH1902 curve”. Further, the “growth of tumors originating from breast CSCs” value in the data set with hBCSC xenografts is “significant inhibition of the growth of tumors”. Besides, the “G2/M cell cycle arrest at 22 h” value in the data set with MDA-MB-231/luc cells is recorded as “some G2/M cell cycle arrest being detected at 22 h”. Besides, the “growth of tumors originating from ovarian CSCs” value in the data set with hOvCSC xenografts is on record as “significant inhibition of the growth of tumors”. For the same compound, the “effect on animals' weight” value in data set [2] (FIGS. 8C, 9C and 10C) is “no or minimal effect”. For the same compound, in the data set on hBCSCs [3], the total apoptosis result is on record as “large increase in apoptosis”. The “recolonization of scratched region by hBCSCs (migration)” value in the data set on hBCSCs [4] is listed as “remained virtually barren of hBCSC for at least 48 hours”. The “growth of tumors originating from pancreatic CSCs” value in the data set with pancreatic CSCs is “significant inhibition of the growth of tumors”.

For `CC(=O)O[C@@]12CO[C@@H]1C[C@H](O)[C@@]1(C)C(=O)[C@H](O)C3=C(C)[C@@H](OC(=O)[C@H](O)[C@@H](NC(=O)OC(C)(C)C)c4ccccc4)C[C@@](O)([C@@H](OC(=O)c4ccccc4)[C@H]21)C3(C)C` [docetaxel, reference compound], in data set [1], the “tumor growth during and shortly after administration” value is listed as “reduction in tumor growth”; the “cancer relapse at later time points (day 74)” value is recorded as “tumor resurgence was observed”. In addition, the “growth of tumors originating from breast CSCs” value in the data set with hBCSC xenografts is “no significant reduction of tumor growth”. For the same compound, the “G2/M cell cycle arrest at 22 h” value with MDA-MB-231/luc cells was “not”. Also, in the data set with hOvCSC xenografts, the “growth of tumors originating from ovarian CSCs” value is given as “no significant reduction of tumor growth”. In addition, the weight loss in data set [2] (mouse, in vivo) is 5-10%. The total apoptosis entry in the data set on hBCSCs [3] was “indistinguishable from that seen in control cells”. Besides, the “recolonization of scratched region by hBCSCs (migration)” value in the data set on hBCSCs [4] is “completely recolonized”. Further, the “growth of tumors originating from pancreatic CSCs” value with pancreatic CSCs is listed as “no significant reduction of tumor growth”.

These data come from patent publication US20240156971A1, “METHODS AND SORTILIN BINDING CONJUGATE COMPOUNDS FOR TARGETING CANCER STEM CELLS” (TRANSFERT PLUS, SOCIÉTÉ EN COMMANDITE, priority 2021, published 2024).
